Test results taken from paper PMC7806522, “Olfactory marker protein interacts with adenosine nucleotide derivatives” (Biochemistry and Biophysics Reports, 2021).
Values belong to the compound of their own block, whether it stands above or below them.

Key:
Type in all cases: biochemical
[1] = molecular target: T1, Olfactory marker protein (OMP) (Mus musculus, UniProt Q64288); assay: BRET competition against […] 8NBD-cAMP (U-shaped, peak at […])
T1 construct: Rluc-OMP fusion (Rluc upstream of mouse OMP, NM_011010), from HEK293T lysate
T1 sequence (Q64288 2-163): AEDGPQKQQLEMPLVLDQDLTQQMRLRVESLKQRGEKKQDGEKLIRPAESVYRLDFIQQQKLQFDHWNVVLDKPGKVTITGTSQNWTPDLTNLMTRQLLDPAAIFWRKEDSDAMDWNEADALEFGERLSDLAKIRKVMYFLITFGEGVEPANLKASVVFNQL

[2] = molecular target: T1, Olfactory marker protein (OMP); assay: BRET competition against […] 8NBD-cAMP (U-shaped)
[3] = molecular target: T1, Olfactory marker protein (OMP); assay: direct BRET binding, Rluc-OMP to fluorescent TNP-ATP, Rluc-alone background subtracted

concentration at peak BRET signal [1]: 1 to 3 µM
SMILES: Nc1ncnc2c1ncn2[C@@H]1O[C@H](COP(=O)(O)OP(=O)(O)O)[C@@H](O)[C@H]1O [ADP]

SMILES: Nc1ncnc2c1ncn2[C@@H]1O[C@H](COP(=O)(O)OP(=O)(O)OP(=O)(O)O)[C@@H](O)[C@H]1O [ATP]
EC50 [2]: 1 ± 0.15 µM

SMILES: Nc1ncnc2c1ncn2[C@@H]1O[C@H](COP(=O)(O)OP(=O)(O)OP(=O)(O)O)[C@H]2OC3(O[C@H]21)C([N+](=O)[O-])=CC(=[N+]([O-])[O-])C=C3[N+](=O)[O-] (stereo partly drawn) [TNP-ATP]
EC50 [3]: 13 ± 1.5 µM
